Molecular target: T1, ligand binding domain of human ROR gamma (Homo sapiens, UniProt P51449)
T1 construct: NM_001001523; expressed in transfected cells; host or cells: HEK293T
T1 sequence (P51449 247-497 isoform P51449-2): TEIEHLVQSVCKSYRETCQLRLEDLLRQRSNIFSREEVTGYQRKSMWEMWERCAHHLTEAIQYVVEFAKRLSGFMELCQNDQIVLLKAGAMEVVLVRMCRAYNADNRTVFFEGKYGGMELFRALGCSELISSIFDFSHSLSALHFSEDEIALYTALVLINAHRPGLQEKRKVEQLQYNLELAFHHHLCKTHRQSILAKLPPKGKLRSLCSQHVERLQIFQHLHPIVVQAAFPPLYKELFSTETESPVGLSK
Test: ROR gamma reporter gene assay (GAL4-RORγ LBD luciferase, Dual-Glo)
Type: cell-based
Details: HEK293T cells transfected with pM-ROR gamma, 8 concentrations 3.5 nM to 10.5 μM, 24 h incubation; read-out: result (pIC50, inhibition of RORγ transcriptional activity) (converted)
How it was run: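 First, HEK293T cells are transfected with the GAL4–RORγ LBD construct, a 5×UAS luciferase reporter and a constitutive renilla control. Next, test compounds are added over eight concentrations (3.5 nM to 10.5 μM). After 24 h at 37 °C, Dual-Glo luminescence is measured and pIC50 fitted.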

`CC1(C)CCC(N(CC(=O)c2c(Cl)cncc2Cl)C(=O)c2cnn([C@H]3CC[C@](C)(C(=O)O)CC3)c2C(F)F)CC1` [Example 196, trans-4-(4-((2-(3,5-dichloropyridin-4-yl)-2-oxoethyl)-(4,4-dimethylcyclohexyl)carbamoyl)-5-(difluoromethyl)pyrazol-1-yl)-1-methylcyclohexane-1-carboxylic acid] was tested. Which IC50 did it give?
The IC50 was 3.47e+06 pM.

Which IC50 does the source give for `C[C@]1(C(=O)O)CC[C@H](n2ncc(C(=O)N(CC(=O)c3c(Cl)cc(F)cc3Cl)Cc3cc(F)cc(F)c3)c2C(F)F)CC1` [Example 197, trans-4-(4-((2-(2,6-dichloro-4-fluorophenyl)-2-oxoethyl)-((3,5-difluorophenyl)methyl)carbamoyl)-5-(difluoromethyl)pyrazol-1-yl)-1-methylcyclohexane-1-carboxylic acid] here?
The IC50 was 513000 pM.

For `O=C(CN(C(=O)c1cnn([C@H]2CC[C@H](C(=O)O)CC2)c1C(F)(F)F)C1CCOC1)c1c(Cl)cncc1Cl` (stereo partly drawn) [Example 198, trans-4-(4-((2-(3,5-dichloropyridin-4-yl)-2-oxoethyl)-(oxolan3-yl)carbamoyl)-5-(trifluoromethyl)pyrazol-1-yl)cyclohexane-1-carboxylic acid], which IC50 is on record?
The IC50 was over 1e+07 pM.

For `CC1(C)[C@@H]2C[C@H](N(CC(=O)c3c(Cl)cc(F)cc3Cl)C(=O)c3cnn([C@H]4CC[C@](C)(C(=O)O)CC4)c3C(F)(F)F)C[C@@H]21` [Example 199, trans-4-(4-((2-(2,6-dichloro-4-fluorophenyl)-2-oxoethyl)-((1R,3r,5S)-6,6-dimethyl-3-bicyclo[3.1.0]hexanyl)carbamoyl)-5-(trifluoromethyl)pyrazol-1-yl)-1-methylcyclohexane-1-carboxylic acid], which IC50 is on record?
The IC50 was 5010 pM.

How did the IC50 turn out when `O=C(CN(CC1CC2(CC2)C1)C(=O)c1cnn([C@H]2CC[C@H](C(=O)O)CC2)c1C(F)(F)F)c1c(Cl)cncc1Cl` [Example 200, trans-4-(4-((2-(3,5-dichloropyridin-4-yl)-2-oxoethyl)-(spiro[2.3]hexan-5-ylmethyl)carbamoyl)-5-(trifluoromethyl)pyrazol-1-yl)cyclohexane-1-carboxylic acid] was run?
The IC50 was 15800 pM.

For `Cn1nc(Cl)c(C(=O)CN(Cc2cc(F)cc(F)c2)C(=O)c2cnn([C@H]3CC[C@H](C(=O)O)CC3)c2C(F)(F)F)c1Cl` [Example 201, trans-4-(4-((2-(3,5-dichloro-1-methylpyrazol-4-yl)-2-oxoethyl)-((3,5-difluorophenyl)methyl)carbamoyl)-5-(trifluoromethyl)pyrazol-1-yl)cyclohexane-1-carboxylic acid], which IC50 is on record?
Its IC50 is over 1e+07 pM.

How did the IC50 turn out when `C[C@]1(C(=O)O)CC[C@H](n2ncc(C(=O)N(CC(=O)c3c(Cl)cc(F)cc3Cl)CC3CC4(CC4)C3)c2C(F)(F)F)CC1` [Example 202, trans-4-(4-((2-(2,6-dichloro-4-fluorophenyl)-2-oxoethyl)-(spiro[2.3]hexan-5-ylmethyl)carbamoyl)-5-(trifluoromethyl)pyrazol-1-yl)-1-methylcyclohexane-1-carboxylic acid] was run?
The IC50 was 7940 pM.

How did the IC50 turn out when `CC(C)(C)CC1CC(N(CC(=O)c2c(Cl)cc(F)cc2Cl)C(=O)c2cnn([C@H]3CC[C@](C)(C(=O)O)CC3)c2C(F)(F)F)C1` (stereo partly drawn) [Example 203, trans-4-(4-((2-(2,6-dichloro-4-fluorophenyl)-2-oxoethyl)-(3-(2,2-dimethylpropyl)cyclobutyl)carbamoyl)-5-(trifluoromethyl)pyrazol-1-yl)-1-methylcyclohexane-1-carboxylic acid] was run?
The IC50 was 912000 pM.

How did the IC50 turn out when `CC(C1CC2(CC2)C1)N(CC(=O)c1c(Cl)cncc1Cl)C(=O)c1cnn([C@H]2CC[C@H](C(=O)O)CC2)c1C(F)(F)F` (stereo partly drawn) [Example 204, trans-4-(4-((2-(3,5-dichloropyridin-4-yl)-2-oxoethyl)-(1-spiro[2.3]hexan-5-ylethyl)carbamoyl)-5-(trifluoromethyl)pyrazol-1-yl)cyclohexane-1-carboxylic acid] was run?
Its IC50 is 60300 pM.

`CC1(C)CCCC(N(CC(=O)c2c(Cl)cncc2Cl)C(=O)c2cnn([C@H]3CC[C@H](C(=O)O)CC3)c2C(F)(F)F)C1` (stereo partly drawn) [Example 205, trans-4-(4-((2-(3,5-dichloropyridin-4-yl)-2-oxoethyl)-(3,3-dimethylcyclohexyl)carbamoyl)-5-(trifluoromethyl)pyrazol-1-yl)cyclohexane-1-carboxylic acid] was tested. Which IC50 did it give?
The IC50 was 138000 pM.

For `Cc1cc(Cl)c(C(=O)CN(CC#CC(C)(C)C)C(=O)c2cnn([C@H]3CC[C@](C)(C(=O)O)CC3)c2C(F)(F)F)c(Cl)c1` [Example 206, trans-4-(4-((2-(2,6-dichloro-4-methylphenyl)-2-oxoethyl)-(4,4-dimethylpent-2-ynyl)carbamoyl)-5-(trifluoromethyl)pyrazol-1-yl)-1-methylcyclohexane-1-carboxylic acid], which IC50 is on record?
The IC50 was 100000 pM.

For `CC(C)(C)C#CCN(CC(=O)c1c(Cl)cc(Cl)cc1Cl)C(=O)c1cnn([C@H]2CC[C@](C)(C(=O)O)CC2)c1C(F)(F)F` [Example 207, trans-4-(4-(4,4-dimethylpent-2-ynyl-(2-oxo-2-(2,4,6-trichlorophenyl)ethyl)carbamoyl)-5-(trifluoromethyl)pyrazol-1-yl)-1-methylcyclohexane-1-carboxylic acid], which IC50 is on record?
Its IC50 is 63100 pM.

How did the IC50 turn out when `CC1(C)CC(N(CC(=O)c2c(Cl)cncc2Cl)C(=O)c2cnn([C@H]3CC[C@H](C(=O)O)CC3)c2C(F)(F)F)CO1` (stereo partly drawn) [Example 208, trans-4-(4-((2-(3,5-dichloropyridin-4-yl)-2-oxoethyl)-(5,5-dimethyloxolan-3-yl)carbamoyl)-5-(trifluoromethyl)pyrazol-1-yl)cyclohexane-1-carboxylic acid] was run?
Its IC50 is 302000 pM.

For `O=C(CN(Cc1cc(F)cc(F)c1)C(=O)c1cnn([C@H]2CC[C@H](C(=O)O)CC2)c1C(F)(F)F)c1c(Cl)n[nH]c1Cl` [Example 209, trans-4-(4 ((2-(3,5-dichloro-1H-pyrazol-4-yl)-2-oxoethyl)-((3,5-difluorophenyl)methyl)carbamoyl)-5-(trifluoromethyl)pyrazol-1-yl)cyclohexane-1-carboxylic acid], which IC50 is on record?
The IC50 was over 1e+07 pM.

`CC1(C#N)CCC(N(CC(=O)c2c(Cl)cncc2Cl)C(=O)c2cnn([C@H]3CC[C@H](C(=O)O)CC3)c2C(F)(F)F)C1` (stereo partly drawn) [Example 210, trans-4-(4-((3-cyano-3-methylcyclopentyl)-(2-(3,5-dichloropyridin-4-yl)-2-oxoethyl)carbamoyl)-5-(trifluoromethyl)pyrazol-1-yl)cyclohexane-1-carboxylic acid] was tested. Which IC50 did it give?
Its IC50 is 1.02e+06 pM.

With `CC1(C)[C@@H]2C[C@H](N(CC(=O)c3c(Cl)cncc3Cl)C(=O)c3cnn([C@H]4CC[C@H](C(=O)O)CC4)c3C(F)(F)F)C[C@@H]21` [Example 211, trans-4-(4-((2-(3,5-dichloropyridin-4-yl)-2-oxoethyl)-((1R,3r,5S)-6,6-dimethyl-3-bicyclo[3.1.0]hexanyl)carbamoyl)-5-(trifluoromethyl)pyrazol-1-yl)cyclohexane-1-carboxylic acid] as the compound, how does the IC50 read?
Its IC50 is 22400 pM.

Which IC50 does the source give for `O=C(CN(C(=O)c1cnn([C@H]2CC[C@H](C(=O)O)CC2)c1C(F)(F)F)[C@H]1CC[C@@H](C(F)(F)F)CC1)c1c(Cl)cncc1Cl` [Example 212, trans-4-(4-((2-(3,5-dichloropyridin-4-yl)-2-oxoethyl)-(4-(trifluoromethyl)cyclohexyl)carbamoyl)-5-(trifluoromethyl)pyrazol-1-yl)cyclohexane-1-carboxylic acid] here?
The IC50 was 20000 pM.

`O=C(CN(C(=O)c1cnn([C@H]2CC[C@H](C(=O)O)CC2)c1C(F)(F)F)[C@H]1CC[C@H](C(F)(F)F)CC1)c1c(Cl)cncc1Cl` [Example 213, trans-4-(4-((2-(3,5-dichloropyridin-4-yl)-2-oxoethyl)-(4-(trifluoromethyl)cyclohexyl)carbamoyl)-5-(trifluoromethyl)pyrazol-1-yl)cyclohexane-1-carboxylic acid] was tested. Which IC50 did it give?
Its IC50 is 112000 pM.

Which IC50 does the source give for `COc1cccc(Cl)c1C(=O)CN(CC#CC(C)(C)C)C(=O)c1cnn([C@H]2CC[C@](C)(C(=O)O)CC2)c1C(F)(F)F` [Example 214, trans-4-(4-((2-(2-chloro-6-methoxyphenyl)-2-oxoethyl)-(4,4-dimethylpent-2-ynyl)carbamoyl)-5-(trifluoromethyl)pyrazol-1-yl)-1-methylcyclohexane-1-carboxylic acid] here?
The IC50 was 324000 pM.

`O=C(CN(C(=O)c1cnn([C@H]2CC[C@H](C(=O)O)CC2)c1C(F)(F)F)C1CC2CCC1C2)c1c(Cl)cncc1Cl` (stereo partly drawn) [Example 215, trans-4-(4-(3-bicyclo[2.2.1]heptanyl-(2-(3,5-dichloropyridin-4-yl)-2-oxoethyl)carbamoyl)-5-(trifluoromethyl)pyrazol-1-yl)cyclohexane-1-carboxylic acid] was tested. Which IC50 did it give?
The IC50 was 32400 pM.

Which IC50 does the source give for `O=C(CN(Cc1cc(F)cc(F)c1)C(=O)c1cnn([C@H]2CC[C@H](C(=O)O)CC2)c1C(F)(F)F)c1c(Cl)nsc1Cl` [Example 216, trans-4-(4-((2-(3,5-dichloro-1,2-thiazol-4-yl)-2-oxoethyl)-((3,5-difluorophenyl)methyl)carbamoyl)-5-(trifluoromethyl)pyrazol-1-yl)cyclohexane-1-carboxylic acid] here?
Its IC50 is over 1.05e+06 pM.

`CC(C)(C)C#CCN(CC(=O)c1c(Cl)cccc1C(F)(F)F)C(=O)c1cnn([C@H]2CC[C@](C)(C(=O)O)CC2)c1C(F)(F)F` [Example 217, trans-4-(4-((2-(2-chloro-6-(trifluoromethyl)phenyl)-2-oxoethyl)-(4,4-dimethylpent-2-ynyl)carbamoyl)-5-(trifluoromethyl)pyrazol-1-yl)-1-methylcyclohexane-1-carboxylic acid] was tested. Which IC50 did it give?
Its IC50 is 219000 pM.

From patent US9365522B2, “Pyrazole amide derivative” (AMGEN INC., priority 2015, dated 2016)
